Converted amounts (≈) assume the structure as drawn. Where two headings read alike, the source gives them in different places. Ends that are not written are not given here. Peptide text beside a SMILES is read from it. * marks the point of attachment. X2 = NC[C@@H]1O[C@H](O[C@H]2[C@@H](O)[C@H](O[C@@H]3[C@@H](O)[C@H](N)C[C@H](N)[C@H]3O[C@H]3O[C@H](CN)[C@@H](O)[C@H](O)[C@H]3N)O[C@@H]2CS*)[C@H](N)[C@@H](O)[C@@H]1O
Columns and labels:
E. coli K12 MG1655 [1] = assay: microbe, parasite or virus in culture; assay type: cell-based, Escherichia coli; details: MIC wells diluted 10-, 100-, 1000-times in fresh MHB, 24 h, 37 °C, bactericidal if no growth at 100- and 1000-times dilutions
Experimental: (§1) The antibacterial activity of the conjugates was assessed by determining their minimum inhibitory concentration (MIC) and minimum bactericidal concentration (MBC) against Gram-negative E. coli (K12 MG 1655 and WR 3551/98) and Gram-positive S. aureus (ATCC 29213 and ATCC BAA1720 MRSA) strains (Table 1, Figures S16–S23).
(§2) The MBC values were determined by diluting wells from the MIC experiment plate in fresh MHB medium. Dilutions of 10-, 100-, and 1000-times were prepared for the MIC well and up to two-folds higher than MIC concentrations of a given compound. Dilutions were made on a transparent flat-bottom 96-well plate (Nest), which was then sealed and incubated for 24 h, at 37 °C with shaking. The growth of a given sample well was compared with GC and SC controls.

E. coli WR 3551/98 [2] = assay: microbe, parasite or virus in culture; assay type: cell-based, Escherichia coli; details: 24 h, 37 °C
Experimental: as §1, §2

[3] = tested on: S. aureus ATCC BAA1720 MRSA; assay: microbe, parasite or virus in culture; assay type: cell-based, Staphylococcus aureus; details: S. aureus ATCC BAA1720 MRSA (NEO-resistant), MHB, 20 h, 37 °C with shaking, OD600
Experimental: as §1
(§3) The MIC values were determined as follows. Bacteria were first cultured overnight in 2 mL of lysogeny broth (LB, VWR Chemicals) at 37 °C with shaking. Next, 20 μL of overnight culture was transferred into 2 mL of […] (MHB, Difco) medium and further cultured at 37 °C with shaking until the culture reached OD600 = 0.3. Subsequently, the culture was diluted 1:100 in a fresh MHB medium, and aliquots of 50 μL were mixed with 50 μL of previously prepared dilutions of the tested compound in MHB on a transparent flat-bottom 96-well plate (Nest). The plate was then sealed with transparent foil (Titer-Tops) and incubated for 20 h, at 37 °C with shaking. Following incubation, optical density at 600 nm was measured using a Tecan Sunrise plate reader. Growth inhibition was determined by comparing the given sample with untreated culture (growth control—GC) with MHB alone (sterility control—SC) as an additional reference. The experiment was conducted in at least two biological replicates of two technical replicates each. Statistical significance was determined by the two-way ANOVA test using GraphPad Prism 9 software.

S. aureus ATCC 29213 [4] = assay: microbe, parasite or virus in culture; assay type: cell-based, Staphylococcus aureus; details: 20 h, 37 °C with shaking, OD600
Experimental: as §1, §3

E. coli K12 MG1655 [5] = assay: microbe, parasite or virus in culture; assay type: cell-based, Escherichia coli; details: MHB, 20 h, 37 °C with shaking, OD600, at least two biological replicates of two technical replicates
Experimental: as §1, §3

E. coli WR 3551/98 [6] = assay: microbe, parasite or virus in culture; assay type: cell-based, Escherichia coli; details: for MIC: E. coli WR 3551/98 (AMK-resistant), MHB, 20 h, 37 °C with shaking, OD600
Experimental: as §1, §3

[7] = tested on: S. aureus ATCC BAA1720 MRSA; assay: microbe, parasite or virus in culture; assay type: cell-based, Staphylococcus aureus; details: MIC wells diluted in fresh MHB, 24 h, 37 °C
Experimental: as §1, §2

S. aureus ATCC 29213 [8] = assay: microbe, parasite or virus in culture; assay type: cell-based, Staphylococcus aureus; details: 24 h, 37 °C
Experimental: as §1, §2

S. aureus ATCC 29213 [9] = assay: Checkerboard synergy test; assay type: cell-based, Staphylococcus aureus; details: MIC not determined, tested range up to 128 μM
Experimental: The synergy between the compounds was assessed using the checkerboard method in a similar way as mentioned in our previous study.[79],[80] Bacteria were first cultured overnight in 2 mL of LB (VWR Chemicals) at 37 °C with shaking. Next, 20 μL of overnight culture was transferred into 2 mL of MHB medium and further cultured at 37 °C with shaking until the culture reached OD600 = 0.3. Subsequently, culture was diluted 1:200 in a fresh MHB medium, and aliquots of 90 μL were mixed with 10 μL of previously prepared dilutions of tested compounds in MHB on a transparent flat-bottom 96-well plate (Nest). The plate was then sealed with transparent adhesive foil (Titer-Tops) and incubated for 20 h, at 37 °C with shaking. Following incubation, optical density at 600 nm was measured using the Tecan Sunrise plate reader. Growth inhibition was determined by comparing the given sample with untreated culture (GC) with MHB alone (SC) as an additional reference. The FIC index was calculated for the first cell within each row and column where growth inhibition was observed. The following formula was used [drawing 1] Ca, Cb—concentration of the agent in combination, and MICa, MICb—MICs for agent a and agent b alone.
Then, the median FIC was determined for the entire checkerboard. In addition, the minimal and maximal values were distinguished (Table 2). […]

[10] = MIC wells diluted in fresh MHB, read-out: MBC
[11] = Escherichia coli, read-out: MBC
[12] = Escherichia coli, WR3551/98, MIC wells diluted in fresh MHB, read-out: MBC
[13] = Staphylococcus aureus, ATCC29213, MHB
[14] = Staphylococcus aureus, ATCC29213, MIC wells diluted in fresh MHB, read-out: MBC

Compound	MBC (E. coli K12 MG1655 [1]; read-out: MBC) [µM]	MIC [3] [µM]	MIC (S. aureus ATCC 29213 [4]; MHB) [µM]	MIC (E. coli K12 MG1655 [5]) [µM]	MIC (E. coli WR 3551/98 [6]) [µM]	MBC [7] [µM]	MBC (S. aureus ATCC 29213 [8]; [10]) [µM]	MBC (E. coli WR 3551/98 [2]; [10]) [µM]	other results
CC[C@H](C)[C@H](NC(=O)[C@H](CCCNC(=N)N)NC(=O)[C@H](CCCCN)NC(=O)[C@H](CC(C)C)NC(=O)[C@H](CC(C)C)NC(=O)CNC(=O)CCCCCCCCc1cn(C[C@H]2O[C@H](O[C@@H]3[C@@H](O)[C@H](O[C@H]4O[C@H](CN)[C@@H](O)[C@H](O)[C@H]4O)[C@@H](N)C[C@H]3NC(=O)[C@@H](O)CCN)[C@H](O)[C@@H](N)[C@@H]2O)nn1)C(=O)N[C@@H](CCCCN)C(=O)N[C@H](C(=O)N[C@@H](CC(C)C)C(=O)N[C@@H](CC(C)C)C(N)=O)[C@@H](C)O [AMK-anoplin] (HELM PEPTIDE1{[NCC[C@H](O)C(=O)N[C@@H]1C[C@H](N)[C@@H](O[C@H]2O[C@H](CN)[C@@H](O)[C@H](O)[C@H]2O)[C@H](O)[C@H]1O[C@H]1O[C@H](Cn2cc(CCCCCCCCC(=O)[*:2])nn2)[C@@H](O)[C@H](N)[C@H]1O].G.L.L.K.R.I.K.T.L.L.[am]}$$$$V2.0)	16 (≈ 30.9 µg/mL)	>32	32 (≈ 61.7 µg/mL)	16 (≈ 30.9 µg/mL)	16 (≈ 30.9 µg/mL)	>32	>32		MBC (E. coli WR 3551/98 [2]; MIC wells diluted in fresh MHB): 16 to 32 µM
CC[C@H](C)[C@H](NC(=O)[C@H](CCCNC(=N)N)NC(=O)[C@H](CCCCN)NC(=O)[C@H](CC(C)C)NC(=O)[C@H](CC(C)C)NC(=O)CNC(=O)[C@@H](N)CSSC[C@H]1O[C@@H](O[C@@H]2[C@@H](O)[C@H](N)C[C@H](N)[C@H]2O[C@H]2O[C@H](CN)[C@@H](O)[C@H](O)[C@H]2N)[C@H](O)[C@@H]1O[C@H]1O[C@@H](CN)[C@@H](O)[C@H](O)[C@H]1N)C(=O)N[C@@H](CCCCN)C(=O)N[C@H](C(=O)N[C@@H](CC(C)C)C(=O)N[C@@H](CC(C)C)C(N)=O)[C@@H](C)O [NEO-SS-anoplin] (H-C(X2)GLLKRIKTLL-NH2)	8 (≈ 15.1 µg/mL)	>32	4 (≈ 7.54 µg/mL)	8 (≈ 15.1 µg/mL)	8 (≈ 15.1 µg/mL)	>32	8 (≈ 15.1 µg/mL)	16 (≈ 30.2 µg/mL)	
CC[C@H](C)[C@H](NC(=O)[C@H](CCCNC(=N)N)NC(=O)[C@H](CCCCN)NC(=O)[C@H](CC(C)C)NC(=O)[C@H](CC(C)C)NC(=O)CNC(=O)CCCCCCCCc1cn(C[C@H]2O[C@@H](O[C@@H]3[C@@H](O)[C@H](N)C[C@H](N)[C@H]3O[C@H]3O[C@H](CN)[C@@H](O)[C@H](O)[C@H]3N)[C@H](O)[C@@H]2O[C@H]2O[C@@H](CN)[C@@H](O)[C@H](O)[C@H]2N)nn1)C(=O)N[C@@H](CCCCN)C(=O)N[C@H](C(=O)N[C@@H](CC(C)C)C(=O)N[C@@H](CC(C)C)C(N)=O)[C@@H](C)O [NEO-anoplin] (HELM PEPTIDE1{[NC[C@@H]1O[C@H](O[C@H]2[C@@H](O)[C@H](O[C@@H]3[C@@H](O)[C@H](N)C[C@H](N)[C@H]3O[C@H]3O[C@H](CN)[C@@H](O)[C@H](O)[C@H]3N)O[C@@H]2Cn2cc(CCCCCCCCC(=O)[*:2])nn2)[C@H](N)[C@@H](O)[C@@H]1O].G.L.L.K.R.I.K.T.L.L.[am]}$$$$V2.0)		32 (≈ 62.6 µg/mL)	16 (≈ 31.3 µg/mL)	8 (≈ 15.7 µg/mL)	16 (≈ 31.3 µg/mL)	32 (≈ 62.6 µg/mL)		16 (≈ 31.3 µg/mL)	MBC (E. coli K12 MG1655 [1]): 8 to 16 µM; MBC (S. aureus ATCC 29213 [8]; MIC wells diluted in fresh MHB): 16 to 32 µM
NCC[C@H](O)C(=O)N[C@@H]1C[C@H](N)[C@@H](O[C@H]2O[C@H](CN)[C@@H](O)[C@H](O)[C@H]2O)[C@H](O)[C@H]1O[C@H]1O[C@H](CO)[C@@H](O)[C@H](N)[C@H]1O [amikacin (AMK), amikacin, reference compound]					>32				MBC (E. coli K12 MG1655 [1]; [11]): 8 to 16 µM (≈ 4.68 to 9.37 µg/mL); MBC (E. coli WR 3551/98 [2]; [12]): > 32 µM; MIC ([3]; Staphylococcus aureus): 32 µM (≈ 18.7 µg/mL); MIC (S. aureus ATCC 29213 [4]; [13]): 8 µM (≈ 4.68 µg/mL); MIC (E. coli K12 MG1655 [5]; Escherichia coli): 4 µM (≈ 2.34 µg/mL); MIC (E. coli WR 3551/98 [6]; Escherichia coli, WR3551/98): > 32 µM; MBC ([7]; Staphylococcus aureus): ≥ 32 µM; MBC (S. aureus ATCC 29213 [8]; [14]): 8 µM (≈ 4.68 µg/mL)
CC[C@H](C)[C@H](NC(=O)[C@H](CCCNC(=N)N)NC(=O)[C@H](CCCCN)NC(=O)[C@H](CC(C)C)NC(=O)[C@H](CC(C)C)NC(=O)CNC(=O)[C@@H](N)CSSC[C@H](N)C(=O)NCC(=O)N[C@@H](CC(C)C)C(=O)N[C@@H](CC(C)C)C(=O)N[C@@H](CCCCN)C(=O)N[C@@H](CCCNC(=N)N)C(=O)N[C@H](C(=O)N[C@@H](CCCCN)C(=O)N[C@H](C(=O)N[C@@H](CC(C)C)C(=O)N[C@@H](CC(C)C)C(N)=O)[C@@H](C)O)[C@@H](C)CC)C(=O)N[C@@H](CCCCN)C(=O)N[C@H](C(=O)N[C@@H](CC(C)C)C(=O)N[C@@H](CC(C)C)C(N)=O)[C@@H](C)O [anoplin-SS-anoplin] (HELM PEPTIDE1{C.G.L.L.K.R.I.K.T.L.L.[am]}|PEPTIDE2{C.G.L.L.K.R.I.K.T.L.L.[am]}$PEPTIDE1,PEPTIDE2,1:R3-1:R3$$$V2.0)	8 (≈ 20.1 µg/mL)	16 (≈ 40.2 µg/mL)	16 (≈ 40.2 µg/mL)	4 (≈ 10 µg/mL)	1 (≈ 2.51 µg/mL)	32 (≈ 80.4 µg/mL)	32 (≈ 80.4 µg/mL)	2 (≈ 5.02 µg/mL)	MIC enhancement compared to anoplin monomer (E. coli WR 3551/98 [6]; E. coli WR 3551/98): 32 fold
NC[C@@H]1O[C@H](O[C@H]2[C@@H](O)[C@H](O[C@@H]3[C@@H](O)[C@H](N)C[C@H](N)[C@H]3O[C@H]3O[C@H](CN)[C@@H](O)[C@H](O)[C@H]3N)O[C@@H]2CO)[C@H](N)[C@@H](O)[C@@H]1O [neomycin (NEO), neomycin, reference compound]									MBC (E. coli K12 MG1655 [1]; [11]): 4 µM (≈ 2.46 µg/mL); MBC (E. coli WR 3551/98 [2]; [12]): 8 µM (≈ 4.92 µg/mL); MIC ([3]; Staphylococcus aureus): > 32 µM; MIC (S. aureus ATCC 29213 [4]; [13]): 1 µM (≈ 0.615 µg/mL); MIC (E. coli K12 MG1655 [5]; Escherichia coli): 4 µM (≈ 2.46 µg/mL); MIC (E. coli WR 3551/98 [6]; Escherichia coli, WR3551/98): 4 µM (≈ 2.46 µg/mL); MBC ([7]; Staphylococcus aureus): > 32 µM; MBC (S. aureus ATCC 29213 [8]; [14]): 2 µM (≈ 1.23 µg/mL)
GLLKRIKTLL-NH2 (C-terminus assumed) [anoplin, reference compound]	≥32	>32	>32		>32	>32	>32	>32	growth inhibition concentration threshold (S. aureus ATCC 29213 [9]): higher than 128 μM

From publication PMC10233823, “Conjugates of Aminoglycosides with Stapled Peptides as a Way to Target Antibiotic-Resistant Bacteria” (ACS Omega, 2023)
